Measured values reported in patent US20210364519A1, “DETERMINING CANCER RESPONSIVENESS TO TREATMENT” (Queensland University of Technology, priority 2018, published 2021).

Tests used:
[1] = system: cell lines depleted of SASH1; test: Olaparib sensitivity of cell lines depleted of SASH1 using siRNA; assay type: cell-based; details: number of cell lines tested
Description: FIG. 5. Depletion of SASH1 increases cancer cell sensitivity to Olaparib. A) Cell lines depleted of SASH1 have a reduced IC50 to Olaparib. B) Combined data of cell lines with SASH1 depletion showing a significant reduction in IC50 to Olaparib.

[2] = system: U2OS cells; test: Olaparib sensitivity of stable U2OS cell line ectopically expressing recombinant SASH1; assay type: cell-based
Description: FIG. 6. Over expression of SASH1 infers resistance to Olaparib in U2OS cells.
Further to this, we made a stable U2OS cell line ectopically expressing recombinant SASH1.

Structure (SMILES): O=C(c1cc(Cc2n[nH]c(=O)c3ccccc23)ccc1F)N1CCN(C(=O)C2CC2)CC1 [Olaparib]
- cell lines with increase in sensitivity to Olaparib after depletion of SASH1 [1]: 9 out of 12
- effect of SASH1 over-expression on Olaparib response [2]: sufficient to induce resistance
